Assay results published in patent publication US20240158446A1, “CYCLIC COMPOUND HAVING SELECTIVE INHIBITORY ACTION ON KRAS OVER HRAS AND NRAS” (CHUGAI SEIYAKU KABUSHIKI KAISHA, priority 2021, published 2024).
Like-named read-outs stand apart in the source and are kept apart here.

Key:
[1] = biological target: GDP-bound KRAS wild-type protein (Homo sapiens, UniProt P01116); test: Binding to KRAS by surface plasmon resonance (SPR), Single Cycle Kinetics; conditions: GDP-bound KRAS wild-type protein, read-out: KRAS KD
GDP-bound KRAS wild-type protein, sequence (P01116 whole entry): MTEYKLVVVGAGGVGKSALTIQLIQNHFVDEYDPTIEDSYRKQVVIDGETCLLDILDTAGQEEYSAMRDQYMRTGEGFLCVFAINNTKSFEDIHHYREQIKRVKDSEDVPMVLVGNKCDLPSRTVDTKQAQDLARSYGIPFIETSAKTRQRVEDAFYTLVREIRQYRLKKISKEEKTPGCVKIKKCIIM

[2] = biological target: GDP-bound NRAS wild-type protein (Homo sapiens, UniProt P01111); test: Binding to NRAS by surface plasmon resonance (SPR), Single Cycle Kinetics; conditions: for NRAS/KRAS (ratio of KD value for NRAS to KD value for KRAS): GDP-bound NRAS wild-type protein vs GDP-bound KRAS wild-type protein; for NRAS/KRAS (ratio of KD value with respect to GDP-bound NRAS wild-type protein to KD value with respect to KRAS): SPR KD ratio NRAS/KRAS, class symbols
GDP-bound NRAS wild-type protein, sequence (P01111 whole entry): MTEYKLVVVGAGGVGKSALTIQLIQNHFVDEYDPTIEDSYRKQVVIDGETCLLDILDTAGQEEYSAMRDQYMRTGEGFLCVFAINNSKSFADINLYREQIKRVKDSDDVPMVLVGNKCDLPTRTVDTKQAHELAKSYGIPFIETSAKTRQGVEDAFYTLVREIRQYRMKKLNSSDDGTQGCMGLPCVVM

[3] = biological target: GDP-bound HRAS wild-type protein (Homo sapiens, UniProt P01112); test: Binding to HRAS by surface plasmon resonance (SPR), Single Cycle Kinetics; conditions: for HRAS/KRAS (ratio of KD value for HRAS to KD value for KRAS): GDP-bound HRAS wild-type protein vs GDP-bound KRAS wild-type protein; for HRAS/KRAS (ratio of KD value with respect to GDP-bound HRAS wild-type protein to KD value with respect to KRAS): SPR KD ratio HRAS/KRAS, class symbols
GDP-bound HRAS wild-type protein, sequence (P01112 whole entry): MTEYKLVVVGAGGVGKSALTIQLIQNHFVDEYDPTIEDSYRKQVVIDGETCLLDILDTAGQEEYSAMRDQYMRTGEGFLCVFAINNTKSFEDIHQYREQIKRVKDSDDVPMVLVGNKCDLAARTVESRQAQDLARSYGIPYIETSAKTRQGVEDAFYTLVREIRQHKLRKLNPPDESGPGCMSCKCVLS

[4] = test system: human lung cancer strain NCI-H441;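 also: cell proliferation inhibition after four days measured by CellTiter-Glo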
[5] = SPR Single Cycle Kinetics, 1:1 binding model
[6] = SPR, Single Cycle Kinetics, 1:1 binding model

| SMILES | Kd ([1]; SPR, Single Cycle Kinetics) [nM] | IC50 [4] [nM] | NRAS/KRAS (ratio of KD value for NRAS to KD value for KRAS) ([2]; SPR) | HRAS/KRAS (ratio of KD value for HRAS to KD value for KRAS) ([3]; SPR) | other results |
| --- | --- | --- | --- | --- | --- |
| CCCCN1CC(=O)NC2(CCC2)C(=O)N(C)[C@@H](C2CCCC2)C(=O)N(C)[C@H](C(=O)N(C)C)CC(=O)N(C)[C@@H](CC)C(=O)N[C@@H]([C@@H](C)CC)C(=O)N(C)CC(=O)N(C)[C@H]2C/C=C\CCN(C2=O)[C@@H](Cc2ccc(C(F)(F)F)cc2)C(=O)N(C)CC(=O)N[C@@H](CCc2cc(F)c(C(F)(F)F)c(F)c2)C1=O [PP1142] | 0.65 | 322 | A (a compound having 10 or more and less than 20 is denoted as A) | A (a compound having 10 or more and less than 20 is denoted as A) |  |
| CC[C@H](C)[C@@H]1NC(=O)[C@H](CC(C)C)N(C)C(=O)C[C@@H](C(=O)N(C)CC)N(C)C(=O)[C@H](C2CCCC2)N(C)C(=O)C2(CC(C)(C)C2)NC(=O)[C@@H]2C[C@H](C)CN2C(=O)[C@H](CCc2ccc(C(F)(F)F)c(OC)c2)NC(=O)CN(C)C(=O)[C@H](Cc2ccc(C)cc2)N2CC/C=C\C[C@@H](C2=O)N(C)C(=O)[C@@H]2CCCN2C1=O [PP2410] | 1.1 | 108 | A (a compound having 10 or more and less than 20 is denoted as A) | A (a compound having 10 or more and less than 20 is denoted as A) |  |
| CCC(CC)[C@H]1C(=O)N(C)[C@H](C(=O)N(C)C)CC(=O)N(C)[C@@H](COC)C(=O)N[C@@H]([C@@H](C)CC)C(=O)N(C2CC2)CC(=O)N(C)[C@H]2C/C=C\CCN(C2=O)[C@@H](Cc2ccc(C)cc2)C(=O)N(C)CC(=O)N[C@@H](CCc2cc(F)c(C(F)(F)F)c(F)c2)C(=O)N2C[C@H](OC(C)C)C[C@H]2C(=O)NC2(CC(C)(C)C2)C(=O)N1C [PP2572] |  | 82.7 |  |  | Kd [1, 5]: 1.2 nM; NRAS/KRAS (ratio of KD value with respect to GDP-bound NRAS wild-type protein to KD value with respect to KRAS) [2]: A (a compound having 10 or more and less than 20 is denoted as A); HRAS/KRAS (ratio of KD value with respect to GDP-bound HRAS wild-type protein to KD value with respect to KRAS) [3]: A (a compound having 10 or more and less than 20 is denoted as A) |
| CCOC[C@H]1C(=O)N[C@@H]([C@@H](C)CC)C(=O)N(C)CC(=O)N(C)[C@H]2C/C=C\CCN(C2=O)[C@@H](CC2CCCCC2)C(=O)N(C)CC(=O)N[C@@H](CCc2cc(F)c(C(F)(F)F)c(F)c2)C(=O)N2C[C@H](OCC)C[C@H]2C(=O)NC2(CC(C)(C)C2)C(=O)N(C)[C@@H](C(CC)CC)C(=O)N(C)[C@H](C(=O)N(C)C)CC(=O)N1C [PP2479] | 1.4 | 26 | AA (a compound having 20 or more is denoted as AA) | A (a compound having 10 or more and less than 20 is denoted as A) |  |
| CCO[C@@H]1C[C@H]2C(=O)NC3(CCC3)C(=O)N(C)[C@@H](C3CCCC3)C(=O)N(C)[C@H](C(=O)N3CCCC3)CC(=O)N(C)[C@@H](CC3CCCC3)C(=O)N[C@@H]([C@@H](C)CC)C(=O)N(C)CC(=O)N(C)[C@H]3C/C=C\CCN(C3=O)[C@@H](Cc3ccc(F)cc3)C(=O)N(C)CC(=O)N[C@@H](CCc3ccc4sccc4c3)C(=O)N2C1 [PP1391] |  | 271 |  |  | Kd [1, 6]: 1.6 nM; NRAS/KRAS (ratio of KD value for NRAS to KD value for KRAS) ([2]; SPR, KD ratio class): A (a compound having 10 or more and less than 20 is denoted as A); HRAS/KRAS (ratio of KD value for HRAS to KD value for KRAS) ([3]; SPR, KD ratio class): A (a compound having 10 or more and less than 20 is denoted as A) |
| CCO[C@@H]1C[C@H]2C(=O)NC3(CCC3)C(=O)N(C)[C@@H](C3CCCC3)C(=O)N(C)[C@H](C(=O)N(C)C)CC(=O)N(C)[C@@H](CC3CCC3)C(=O)N[C@@H]([C@@H](C)CC)C(=O)N(C)CC(=O)N(C)[C@H]3C/C=C\CCN(C3=O)[C@@H](CC3CCCCC3)C(=O)N(C)CC(=O)N[C@@H](CCc3cc(F)c(C(F)(F)F)c(F)c3)C(=O)N2C1 [PP1469] |  | 22.2 |  |  | Kd [1, 6]: 0.18 nM; NRAS/KRAS (ratio of KD value for NRAS to KD value for KRAS) ([2]; SPR, KD ratio class): A (a compound having 10 or more and less than 20 is denoted as A); HRAS/KRAS (ratio of KD value for HRAS to KD value for KRAS) ([3]; SPR, KD ratio class): A (a compound having 10 or more and less than 20 is denoted as A) |
| CCO[C@@H]1C[C@H]2C(=O)NC3(CC(C)(C)C3)C(=O)N(C)[C@@H](C3CCCC3)C(=O)N(C)[C@H](C(=O)N3CCCCC3)CC(=O)N(C)[C@@H](COC)C(=O)N[C@@H]([C@@H](C)CC)C(=O)N(C)CC(=O)N(C)[C@H]3C/C=C\CCN(C3=O)[C@@H](Cc3ccc(C)cc3)C(=O)N(C)CC(=O)N[C@@H](CCc3cc(F)c(C(F)(F)F)c(F)c3)C(=O)N2C1 [PP2668] |  | 10.3 |  |  | Kd [1, 5]: 0.18 nM; NRAS/KRAS (ratio of KD value with respect to GDP-bound NRAS wild-type protein to KD value with respect to KRAS) [2]: A (a compound having 10 or more and less than 20 is denoted as A); HRAS/KRAS (ratio of KD value with respect to GDP-bound HRAS wild-type protein to KD value with respect to KRAS) [3]: A (a compound having 10 or more and less than 20 is denoted as A) |

Continued by falling IC50 [4], values first:

| Kd ([1]; SPR, Single Cycle Kinetics) [nM] | IC50 [4] [nM] | SMILES | NRAS/KRAS (ratio of KD value for NRAS to KD value for KRAS) ([2]; SPR) | HRAS/KRAS (ratio of KD value for HRAS to KD value for KRAS) ([3]; SPR) | other results |
| --- | --- | --- | --- | --- | --- |
| 0.12 | 10.9 | C#CC[C@H]1C(=O)N[C@@H]([C@@H](C)CC)C(=O)N(C)CC(=O)N(C)[C@H]2C/C=C\CCN(C2=O)[C@@H](Cc2ccc(C(F)(F)F)cc2)C(=O)N(C)CC(=O)N[C@@H](CCc2cc(F)c(C(F)(F)F)c(F)c2)C(=O)N2C[C@@H](C)C[C@H]2C(=O)NC2(CCC2)C(=O)N(C)[C@@H](C2CCCC2)C(=O)N(C)[C@H](C(=O)N(C)CCC)CC(=O)N1C [PP2077] | A (a compound having 10 or more and less than 20 is denoted as A) | A (a compound having 10 or more and less than 20 is denoted as A) |  |
| 0.17 | 9.7 | CCO[C@@H]1C[C@H]2C(=O)NC3(CCC3)C(=O)N(C)[C@@H](C(CC)CC)C(=O)N(C)[C@H](C(=O)N(C)C)CC(=O)N(C)[C@@H](CC(C)C)C(=O)N[C@@H]([C@@H](C)CC)C(=O)N(C)CC(=O)N(C)[C@H]3C/C=C\CCN(C3=O)[C@@H](Cc3ccc(C(F)(F)F)cc3)C(=O)N(C)CC(=O)N[C@@H](CCc3cc(F)c(C(F)(F)F)c(F)c3)C(=O)N2C1 [PP1201] | AA (a compound having 20 or more is denoted as AA) | A (a compound having 10 or more and less than 20 is denoted as A) |  |
|  | 5 | CCO[C@@H]1C[C@H]2C(=O)NC3(CCC3)C(=O)N(C)[C@@H](C3CCCC3)C(=O)N(C)[C@H](C(=O)N3CCOCC3)CC(=O)N(C)[C@@H](CC)C(=O)N[C@@H]([C@@H](C)CC)C(=O)N(C)CC(=O)N(C)[C@H]3CC[C@@H](C)CN(C3=O)[C@@H](Cc3ccc(C(F)(F)F)cc3)C(=O)N(C)CC(=O)N[C@@H](CCc3cc(F)c(C(F)(F)F)c(F)c3)C(=O)N2C1 [PP1372] |  |  | Kd [1, 6]: 0.078 nM; NRAS/KRAS (ratio of KD value for NRAS to KD value for KRAS) ([2]; SPR, KD ratio class): B (a compound having 3 or more and less than 10 is denoted as B); HRAS/KRAS (ratio of KD value for HRAS to KD value for KRAS) ([3]; SPR, KD ratio class): B (a compound having 3 or more and less than 10 is denoted as B) |
| 0.05 | 1.8 | CC[C@H](C)[C@@H]1NC(=O)[C@@H]2CCCCc3ccc(cc3)C[C@@H](C(=O)N(C)CC(=O)N[C@@H](CCc3ccc(C(F)(F)F)c(OC)c3)C(=O)N3C[C@H](OC4CCC4)C[C@H]3C(=O)NC3(CC(C)(C)C3)C(=O)N(C)[C@@H](C3CCCC3)C(=O)N(C)[C@H](C(=O)N(C)CC)CC(=O)N2C)N2CC/C=C\C[C@@H](C2=O)N(C)C(=O)CN(C)C1=O [PP3079] | A (a compound having 10 or more and less than 20 is denoted as A) | B (a compound having 3 or more and less than 10 is denoted as B) | ratio of the KD value with respect to GDP-bound NRAS wild-type protein to the KD value with respect to KRAS ([2]; SPR, KD(NRAS)/KD(KRAS)): A (a compound having 10 or more and less than 20 is denoted as A); ratio of the KD value with respect to GDP-bound HRAS wild-type protein to the KD value with respect to KRAS ([3]; SPR, KD(HRAS)/KD(KRAS)): B (a compound having 3 or more and less than 10 is denoted as B); IC50 ([4]; read-out: NCI-H441 cell proliferation inhibitory activity, 50% proliferation inhibitory concentration (IC50 value), NCI-H441, four days, CellTiter-Glo): 1.8 nM |
